Measured values: patent US11731943B2, “Therapeutic compounds, compositions and methods of use thereof” (priority 2016, dated 2023)
Read-outs that look alike come from different tables or passages of the source.

What was measured:
[1] = tested on: JAK1-dependent STAT6 phosphorylation downstream of IL-13 stimulation in BEAS-2B human bronchial epithelial cells; test: JAK1 pathway assay in BEAS-2B cells (IL-13-pSTAT6, MSD); assay type: cell-based; conditions: BEAS-2B cells, IL-13 stimulation, read-out: IL-13 p-STAT6 BEAS-2B IC50
Method: JAK1 Pathway Assay in Cell Lines was carried out as follows:
Inhibitor potency (EC50) was determined in cell-based assays designed to measure JAK1 dependent STAT phosphorylation.
In one assay approach, TF-1 human erythroleukemia cells obtained from the American Type Culture Collection (ATCC; Manassas, Va.) were used to measure JAK1-dependent STAT6 phosphorylation downstream of IL-13 stimulation. Prior to use in the assays, TF-1 cells were starved of GM-CSF overnight in OptiMEM medium (Life Technologies, Grand Island, N.Y.) supplemented with 0.5% charcoal/dextran stripped fetal bovine serum (FBS), 0.1 mM non-essential amino acids (NEAA), and 1 mM sodium pyruvate. The assays were run in 384-well plates in serum-free OptiMEM medium using 300,000 cells per well. In a second assay approach, BEAS-2B human bronchial epithelial cells obtained from ATCC were plated at 100,000 cells per well of a 96-well plate one day prior to the experiment. The BEAS-2B assay was run in complete growth medium (bronchial epithelial basal medium plus bulletkit; Lonza; Basel, Switzerland).
Test compounds were serially diluted 1:2 in DMSO and then diluted 1:50 in medium just before use. Diluted compounds were added to the cells, for a final DMSO concentration of 0.2%, and incubated for 30 min (for the TF-1 assay) or 1 hr (for the BEAS-2B assay) at 37° C. Then, cells were stimulated with human recombinant cytokine at their respective EC90 concentrations, as previously determined for each individual lot. Cells were stimulated with IL-13 (R&D Systems, Minneapolis, Minn.) for 15 min at 37° C. The TF-1 cell reactions were stopped by the direct addition of 10× lysis buffer (Cell Signaling Technologies, Danvers, Mass.), whereas the BEAS-2B cell incubations were halted by the removal of medium and addition of 1× lysis buffer. The resultant samples were frozen in the plates at −80° C. Compound mediated inhibition of STATE phosphorylation was measured in the cell lysates using MesoScale Discovery (MSD) technology (Gaithersburg, Md.).

[2] = target: isolated recombinant JAK2 kinase domain (Homo sapiens (Human), UniProt O60674); test: JAK2 enzyme assay (Caliper LabChip, Ki); assay type: biochemical
isolated recombinant JAK2 kinase domain, sequence (O60674 849-1124): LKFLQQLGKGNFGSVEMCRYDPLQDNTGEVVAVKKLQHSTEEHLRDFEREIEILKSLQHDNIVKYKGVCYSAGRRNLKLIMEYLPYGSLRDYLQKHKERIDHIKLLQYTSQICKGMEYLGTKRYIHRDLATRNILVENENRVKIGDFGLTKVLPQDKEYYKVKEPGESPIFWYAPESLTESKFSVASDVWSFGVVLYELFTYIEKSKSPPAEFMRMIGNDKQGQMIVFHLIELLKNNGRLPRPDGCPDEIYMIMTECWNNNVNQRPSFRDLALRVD
Summary of the method: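 Recombinant human JAK1 or JAK2 kinase domain phosphorylating a 5-carboxyfluorescein-labelled JAK3-derived peptide; 30 min at 22 °C, stopped with EDTA (50 mM final). Phosphorylated product measured as a fraction of total peptide by Caliper LabChip mobility shift.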

[3] = target: isolated recombinant JAK1 kinase domain (Homo sapiens (Human), UniProt P23458); test: JAK1 enzyme assay (Caliper LabChip, Ki); assay type: biochemical
isolated recombinant JAK1 kinase domain, sequence (P23458 875-1153): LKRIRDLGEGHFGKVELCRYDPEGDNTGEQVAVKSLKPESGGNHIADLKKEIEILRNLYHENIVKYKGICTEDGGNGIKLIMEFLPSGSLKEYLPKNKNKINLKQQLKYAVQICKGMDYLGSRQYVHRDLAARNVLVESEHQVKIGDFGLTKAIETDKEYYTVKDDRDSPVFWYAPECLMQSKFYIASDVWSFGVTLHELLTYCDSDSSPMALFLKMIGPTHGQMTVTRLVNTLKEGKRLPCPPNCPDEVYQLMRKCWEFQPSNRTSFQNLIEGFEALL
Summary of the method: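 Recombinant human JAK1 kinase domain phosphorylating an N-terminally 5-carboxyfluorescein-labelled JAK3-derived peptide, 30 min at 22 °C, stopped with EDTA (50 mM final). Phosphorylated fraction of total peptide read by Caliper LabChip mobility shift; Ki from Morrison tight-binding fit corrected for ATP competition (Ki=Ki,app/(1+[ATP]/Km,app)).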

Row | SMILES | IC50 [1] | Ki [2] | Ki ([3]; read-out: JAK1 Ki) | IC50 ([1]; Homo sapiens, BEAS-2B) | Ki [3]
1 | N#CCC1(n2cc(C(N)=O)c(NC(=O)C3CC3)n2)CCC(Oc2ccc(-c3ccccc3)cc2)CC1 (single isomer, unassigned) [Example 210, 1-(4-([1,1′-Biphenyl]-4-yloxy)-1-(cyanomethyl)cyclohexyl)-3-(cyclopropanecarboxamido)-1H-pyrazole-4-carboxamide] | 75 nM | 5.1 nM | 2.1 nM | – | –
2 | N#CCC1(n2cc(C(N)=O)c(NC(=O)C3CC3)n2)CCC(Oc2ccc(-c3ccccc3)cc2)CC1 (single isomer, unassigned) [Example 211, 1-(4-([1,1′-Biphenyl]-4-yloxy)-1-(cyanomethyl)cyclohexyl)-3-(cyclopropanecarboxamido)-1H-pyrazole-4-carboxamide] | 26 nM | 4.6 nM | 0.74 nM | – | –
3 | N#CCC1(n2cc(C(N)=O)c(NC(=O)C3CC3)n2)CCN(Cc2ccc(-c3ccccc3)cc2)CC1 [Example 6, 1-(1-([1,1′-Biphenyl]-4-ylmethyl)-4-(cyanomethyl)piperidin-4-yl)-3-(cyclopropanecarboxamido)-1H-pyrazole-4-carboxamide] | – | 3.6 nM | 0.8 nM | 31 nM | –
4 | N#CCC1(n2cc(C(N)=O)c(NC(=O)C3CC3)n2)CCN(Cc2ccc(-c3ccccc3)c(O)c2)CC1 [Example 11, 1-(4-(Cyanomethyl)-1-((2-hydroxy-[1,1′-biphenyl]-4-yl)methyl)piperidin-4-yl)-3-(cyclopropanecarboxamido)-1H-pyrazole-4-carboxamide] | – | 1 nM | 0.4 nM | 383 nM | –
5 | N#CCC1(n2cc(C(N)=O)c(NC(=O)C3CC3)n2)CCN(Cc2ccc(-c3csc(Cl)c3)nc2)CC1 [Example 16, 1-(1-((6-(5-Chlorothiophen-3-yl)pyridin-3-yl)methyl)-4-(cyanomethyl)piperidin-4-yl)-3-(cyclopropanecarboxamido)-1H-pyrazole-4-carboxamide] | – | 2.4 nM | 0.5 nM | 85 nM | –
6 | N#CCC1(n2cc(C(N)=O)c(NC(=O)C3CC3)n2)CCN(C(=O)OCC2CC2)CC1 [Example 17, Cyclopropylmethyl 4-(4-carbamoyl-3-(cyclopropanecarboxamido)-1H-pyrazol-1-yl)4-(cyanomethyl) piperidine-1-carboxylate] | – | 69.4 nM | 4 nM | 948 nM | –
7 | N#CCC1(n2cc(C(N)=O)c(NC(=O)C3CC3)n2)CCN(C(=O)NC2CC(F)(F)C2)CC1 [Example 21, 4-(4-Carbamoyl-3-(cyclopropanecarboxamido)-1H-pyrazol-1-yl)-4-(cyanomethyl)-N-(3,3-difluorocyclobutyl) piperidine-1-carboxamide] | – | 48.4 nM | 2.3 nM | > 1000 nM | –
8 | N#CCC1(n2cc(C(N)=O)c(NC(=O)C3CC3)n2)CCN(CC(F)(F)F)CC1 [Example 23] | – | 19.4 nM | 4.5 nM | 250 nM | –
9 | CS(=O)(=O)Nc1cccc(CN2CCC(CC#N)(n3cc(C(N)=O)c(NC(=O)C4CC4)n3)CC2)c1 [Example 45] | – | 8.5 nM | 1.9 nM | > 1000 nM | –
10 | N#CCC1(n2cc(C(N)=O)c(NC(=O)C3CC3)n2)CCN(Cc2ccc(Br)cc2)CC1 [Example 52] | – | 20.9 nM | 2.3 nM | 102 nM | –
11 | N#CCC1(n2cc(C(N)=O)c(NC(=O)C3CC3)n2)CCN(Cc2ccc(I)cc2)CC1 [Example 55] | – | 31.4 nM | 3.2 nM | 98 nM | –
12 | N#CCC1(n2cc(C(N)=O)c(NC(=O)C3CC3)n2)CCN(Cc2cccc(F)c2)CC1 [Example 56] | – | 24.3 nM | 2.4 nM | 363 nM | –
13 | N#CCC1(n2cc(C(N)=O)c(NC(=O)C3CC3)n2)CCN(Cc2ccc(F)cc2)CC1 [Example 57] | – | 49 nM | 3.9 nM | 128 nM | –
14 | N#CCC1(n2cc(C(N)=O)c(NC(=O)C3CC3)n2)CCN(Cc2ccccc2Cl)CC1 [Example 58] | – | 42.6 nM | 4.4 nM | 287 nM | –
15 | N#CCC1(n2cc(C(N)=O)c(NC(=O)C3CC3)n2)CCN(Cc2ccc(Cl)cc2)CC1 [Example 60] | – | 23.4 nM | 3.9 nM | 94 nM | –
16 | N#CCC1(n2cc(C(N)=O)c(NC(=O)C3CC3)n2)CCN(Cc2ccccc2C#N)CC1 [Example 64] | – | 83.5 nM | 7.3 nM | > 1000 nM | –

Row | SMILES | IC50 [1] | Ki [2] | Ki ([3]; read-out: JAK1 Ki) | IC50 ([1]; Homo sapiens, BEAS-2B) | Ki [3]
17 | N#CCC1(n2cc(C(N)=O)c(NC(=O)C3CC3)n2)CCN(Cc2ccc(C#N)cc2)CC1 [Example 66] | – | 50.2 nM | 4 nM | 910 nM | –
18 | CCS(=O)(=O)Nc1cccc(CN2CCC(CC#N)(n3cc(C(N)=O)c(NC(=O)C4CC4)n3)CC2)c1 [Example 75] | – | 14 nM | 2.7 nM | > 1000 nM | –
19 | CC(=O)Nc1cccc(CN2CCC(CC#N)(n3cc(C(N)=O)c(NC(=O)C4CC4)n3)CC2)c1 [Example 76] | – | 36.9 nM | 3.9 nM | > 1000 nM | –
20 | N#CCC1(n2cc(C(N)=O)c(NC(=O)C3CC3)n2)CCN(Cc2ccc(Br)c(F)c2)CC1 [Example 77] | – | 44.7 nM | 2.6 nM | 227 nM | –
21 | CS(=O)(=O)Nc1cccc(CN2CCC(CC#N)(n3cc(C(N)=O)c(NC(=O)C4CC4)n3)CC2)c1F [Example 78] | – | 4.9 nM | 2.9 nM | > 1000 nM | –
22 | CS(=O)(=O)Nc1cc(CN2CCC(CC#N)(n3cc(C(N)=O)c(NC(=O)C4CC4)n3)CC2)ccc1F [Example 79] | – | 14.2 nM | 3 nM | > 1000 nM | –
23 | CS(=O)(=O)Nc1cc(F)cc(CN2CCC(CC#N)(n3cc(C(N)=O)c(NC(=O)C4CC4)n3)CC2)c1 [Example 80] | – | 3.6 nM | 1.2 nM | > 1000 nM | –
24 | CC(=O)Nc1cc(CN2CCC(CC#N)(n3cc(C(N)=O)c(NC(=O)C4CC4)n3)CC2)ccc1Cl [Example 81] | – | 38.4 nM | 4.4 nM | > 1000 nM | –
25 | Cn1ccc(-c2ccc(CN3CCC(CC#N)(n4cc(C(N)=O)c(NC(=O)C5CC5)n4)CC3)cc2)n1 [Example 82] | – | 14.3 nM | 4.9 nM | 688 nM | –
26 | N#CCC1(n2cc(C(N)=O)c(NC(=O)C3CC3)n2)CCN(Cc2ccc(-n3cccn3)cc2)CC1 [Example 87] | – | 25.1 nM | 2.2 nM | 350 nM | –
27 | N#CCC1(n2cc(C(N)=O)c(NC(=O)C3CC3)n2)CCN(Cc2ccc(-n3nccn3)cc2)CC1 [Example 89] | – | 6.8 nM | 0.7 nM | 119 nM | –
28 | CC(C)S(=O)(=O)Nc1cccc(CN2CCC(CC#N)(n3cc(C(N)=O)c(NC(=O)C4CC4)n3)CC2)c1 [Example 94] | – | 21.8 nM | 4.1 nM | > 1000 nM | –
29 | N#CCC1(n2cc(C(N)=O)c(NC(=O)C3CC3)n2)CCN(Cc2ccc3c(c2)[nH]c2ccccc23)CC1 [Example 95] | – | 6.3 nM | 1.2 nM | 275 nM | –
30 | COC1CN([C@H]2CC[C@@](CC#N)(n3cc(C(N)=O)c(NC(=O)C4CC4)n3)CC2)C1 [Example 102] | – | 31.8 nM | – | 933 nM | 3.3 nM
31 | N#CC[C@]1(n2cc(C(N)=O)c(NC(=O)C3CC3)n2)CC[C@H](N2CC3(CCC3)C2)CC1 [Example 107] | – | 43.1 nM | – | > 1000 nM | 3.3 nM
32 | N#CC[C@]1(n2cc(C(N)=O)c(NC(=O)C3CC3)n2)CC[C@H](NCc2ccccc2Cl)CC1 [Example 117] | – | 54.7 nM | – | 611 nM | 3.7 nM
